What all share (assay): biochemical
Common to all, as to set-up: Eurofins KinaseProfiler full panel at Km ATP, residual kinase activity (%) relative to DMSO

One experiment concerns the target T1, NEK11(h) (Homo sapiens, UniProt Q8NG66).
T1 sequence (Q8NG66 1-645): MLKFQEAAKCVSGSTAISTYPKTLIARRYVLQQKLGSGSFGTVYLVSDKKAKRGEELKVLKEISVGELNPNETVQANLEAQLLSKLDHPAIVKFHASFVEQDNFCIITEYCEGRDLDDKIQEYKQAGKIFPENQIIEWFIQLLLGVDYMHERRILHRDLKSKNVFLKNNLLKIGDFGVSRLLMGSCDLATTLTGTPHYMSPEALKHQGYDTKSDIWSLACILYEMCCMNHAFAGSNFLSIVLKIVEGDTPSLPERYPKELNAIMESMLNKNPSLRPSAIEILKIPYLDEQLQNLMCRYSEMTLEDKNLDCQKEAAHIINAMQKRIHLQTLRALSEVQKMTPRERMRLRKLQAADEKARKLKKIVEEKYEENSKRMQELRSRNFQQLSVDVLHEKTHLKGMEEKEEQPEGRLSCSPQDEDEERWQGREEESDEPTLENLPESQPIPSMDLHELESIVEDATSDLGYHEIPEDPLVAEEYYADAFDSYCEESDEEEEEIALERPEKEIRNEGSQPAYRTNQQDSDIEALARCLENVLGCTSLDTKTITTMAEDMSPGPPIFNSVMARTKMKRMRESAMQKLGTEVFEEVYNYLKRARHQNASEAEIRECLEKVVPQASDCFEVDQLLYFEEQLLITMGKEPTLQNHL
The method in brief: (§1)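 Two 10 µM single-concentration screens were run: a competition-binding screen, in which DNA-tagged kinase bound to immobilized ligands was quantified by qPCR, and a radiometric activity panel at Km ATP. Each is expressed as residual kinase activity (%).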

A further experiment concerns the target T2, Abl(Y253F)(h) (Homo sapiens, UniProt P00519, Y253F).
T2 construct: gene ABL1
The essentials: as §1

The next experiment deals with T3, SGK3(h) (Homo sapiens, UniProt Q96BR1).
T3 sequence (Q96BR1 1-496): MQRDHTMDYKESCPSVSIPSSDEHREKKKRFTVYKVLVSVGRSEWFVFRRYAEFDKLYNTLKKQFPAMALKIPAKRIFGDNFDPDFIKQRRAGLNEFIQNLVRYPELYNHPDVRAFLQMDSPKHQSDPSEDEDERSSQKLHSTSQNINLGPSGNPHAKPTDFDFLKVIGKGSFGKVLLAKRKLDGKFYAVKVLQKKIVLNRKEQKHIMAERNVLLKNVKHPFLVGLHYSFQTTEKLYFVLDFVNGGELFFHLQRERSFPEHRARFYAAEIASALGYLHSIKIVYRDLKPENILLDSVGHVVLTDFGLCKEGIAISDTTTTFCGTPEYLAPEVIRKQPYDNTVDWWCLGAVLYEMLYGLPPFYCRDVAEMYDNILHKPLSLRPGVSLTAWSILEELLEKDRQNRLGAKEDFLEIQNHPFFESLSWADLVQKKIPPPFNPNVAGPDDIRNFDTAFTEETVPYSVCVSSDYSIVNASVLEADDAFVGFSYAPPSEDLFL
The method in brief: as §1

For the next experiment, the target named is T4, DRAK1(h) (Homo sapiens, UniProt Q9UEE5).
T4 construct: gene STK17A
T4 sequence (Q9UEE5 1-414): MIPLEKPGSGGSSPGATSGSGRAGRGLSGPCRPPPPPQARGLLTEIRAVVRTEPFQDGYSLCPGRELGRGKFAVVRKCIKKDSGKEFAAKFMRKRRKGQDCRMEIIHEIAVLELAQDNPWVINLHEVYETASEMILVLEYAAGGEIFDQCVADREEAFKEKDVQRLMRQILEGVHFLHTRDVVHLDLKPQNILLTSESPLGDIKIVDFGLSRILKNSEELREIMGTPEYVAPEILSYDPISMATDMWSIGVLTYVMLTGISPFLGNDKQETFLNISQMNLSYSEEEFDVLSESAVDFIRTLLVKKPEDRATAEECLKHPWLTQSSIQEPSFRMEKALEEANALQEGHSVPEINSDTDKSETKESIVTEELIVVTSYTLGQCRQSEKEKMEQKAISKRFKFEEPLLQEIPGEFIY
The method in brief: as §1

Another experiment deals with HIPK1(h) (Homo sapiens, UniProt Q86Z02). The essentials: as §1
Sequence of HIPK1(h) (Q86Z02 whole entry): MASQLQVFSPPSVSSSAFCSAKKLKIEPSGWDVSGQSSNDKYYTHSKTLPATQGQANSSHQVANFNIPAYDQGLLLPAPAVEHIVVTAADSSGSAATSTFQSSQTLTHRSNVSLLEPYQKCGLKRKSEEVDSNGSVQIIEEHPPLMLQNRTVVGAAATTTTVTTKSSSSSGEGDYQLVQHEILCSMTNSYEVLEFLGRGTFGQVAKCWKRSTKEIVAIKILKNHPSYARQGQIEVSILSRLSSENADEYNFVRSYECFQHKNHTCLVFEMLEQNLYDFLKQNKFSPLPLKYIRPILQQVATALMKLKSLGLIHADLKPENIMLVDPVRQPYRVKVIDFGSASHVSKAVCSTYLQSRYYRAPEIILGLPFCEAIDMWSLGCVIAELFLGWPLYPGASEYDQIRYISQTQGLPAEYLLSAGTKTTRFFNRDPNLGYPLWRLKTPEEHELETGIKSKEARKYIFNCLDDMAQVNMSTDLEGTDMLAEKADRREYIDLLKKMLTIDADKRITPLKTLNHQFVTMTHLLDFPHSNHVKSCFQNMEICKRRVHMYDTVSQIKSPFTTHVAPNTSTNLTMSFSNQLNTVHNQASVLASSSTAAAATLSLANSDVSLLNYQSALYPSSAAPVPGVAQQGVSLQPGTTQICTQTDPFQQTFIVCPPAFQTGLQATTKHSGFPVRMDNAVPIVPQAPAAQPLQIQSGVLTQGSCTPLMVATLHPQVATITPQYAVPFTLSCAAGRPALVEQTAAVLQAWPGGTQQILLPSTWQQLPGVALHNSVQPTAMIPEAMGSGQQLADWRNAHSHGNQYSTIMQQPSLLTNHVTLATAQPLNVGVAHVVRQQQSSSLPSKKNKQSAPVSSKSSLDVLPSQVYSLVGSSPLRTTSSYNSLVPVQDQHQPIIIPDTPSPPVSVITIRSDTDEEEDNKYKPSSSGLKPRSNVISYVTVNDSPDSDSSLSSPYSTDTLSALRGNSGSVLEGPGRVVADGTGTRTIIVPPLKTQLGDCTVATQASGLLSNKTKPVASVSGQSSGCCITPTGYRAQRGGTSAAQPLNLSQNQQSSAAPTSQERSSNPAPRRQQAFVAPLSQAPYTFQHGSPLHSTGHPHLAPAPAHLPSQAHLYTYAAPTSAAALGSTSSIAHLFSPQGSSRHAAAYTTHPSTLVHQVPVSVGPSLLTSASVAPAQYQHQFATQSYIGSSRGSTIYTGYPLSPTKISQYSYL
A further experiment addresses T5, TSSK3(h) (Homo sapiens, UniProt Q96PN8).
T5 sequence (Q96PN8 1-268): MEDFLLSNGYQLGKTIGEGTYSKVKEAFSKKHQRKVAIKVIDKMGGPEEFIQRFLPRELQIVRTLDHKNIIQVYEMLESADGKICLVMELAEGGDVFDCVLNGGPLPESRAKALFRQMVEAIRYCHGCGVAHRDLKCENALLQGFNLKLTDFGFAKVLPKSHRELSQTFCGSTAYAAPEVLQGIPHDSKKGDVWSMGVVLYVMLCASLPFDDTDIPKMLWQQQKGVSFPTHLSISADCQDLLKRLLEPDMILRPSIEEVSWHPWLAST
The method in brief:
as §1

Setting [1] is: read-out: Residual activity (%) Spautin-1 5aa.
Setting [2] is: read-out: Residual activity (%) 5as.
The mark [3] stands for this setting: read-out: Residual activity (%) 5at.
The mark [4] stands for this setting: read-out: Residual activity (%) 5ay.

Where two headings read alike, the source gives them in different places.

With `Fc1ccc(CNc2ncnc3ccc(F)cc23)cc1` [5aa, 6-Fluoro-N-(4-fluorobenzyl)-4-Quinazolinamine], the remaining activity at 10 µM on NEK11(h) (setting [1]) is 41%; on Abl(Y253F)(h) (setting [1]), 106%; on SGK3(h) (setting [1]), 95%; on DRAK1(h) (setting [1]), 98%; at HIPK1(h) (setting [1]), 94%; at TSSK3(h) (setting [1]), 111%.
As for `Fc1ccc(CCNc2ncnc3ccc(F)cc23)cc1` [5as, 6-Fluoro-N-[2-(4-Fluorophenyl)Ethyl]-4-Quinazolinamine], the remaining activity at 10 µM turned out to be 71% on NEK11(h) (setting [2]); 91% at Abl(Y253F)(h) (setting [2]); 88% at SGK3(h) (setting [2]); 79% at DRAK1(h) (setting [2]); 120% at HIPK1(h) (setting [2]); 97% on TSSK3(h) (setting [2]).
As for `Fc1ccc2ncnc(NCCc3ccc(Cl)cc3)c2c1` [5at, N-[2-(4-Chlorophenyl)Ethyl]-6-Fluoro-4-Quinazolinamine], the remaining activity at 10 µM on NEK11(h) (setting [3]) was 45%; at Abl(Y253F)(h) (setting [3]), 71%; at SGK3(h) (setting [3]), 93%; on DRAK1(h) (setting [3]), 85%; at HIPK1(h) (setting [3]), 103%; on TSSK3(h) (setting [3]), 95%.
In the case of `COc1ccc2ncnc(Nc3cccc(F)c3)c2c1` [5ay, N-(3-Fluorophenyl)-6-Methoxy-4-Quinazolinamine], the remaining activity at 10 µM at NEK11(h) (setting [4]) is 53%; at Abl(Y253F)(h) (setting [4]) it was 66%; on SGK3(h) (setting [4]), 91%; at DRAK1(h) (setting [4]), 57%; on HIPK1(h) (setting [4]) it was 78%; on TSSK3(h) (setting [4]), 104%.

Source of the values: paper PMC7827406, “Structure–Activity Relationship (SAR) Study of Spautin-1 to Entail the Discovery of Novel NEK4 Inhibitors” (International Journal of Molecular Sciences, 2021).
